Measured values reported in patent US20150071918A1, “PEPTIDES FOR THE TREATMENT OF CANCER” (H. LEE MOFFITT CANCER CENTER AND RESEARCH INSTITUTE, INC., priority 2012, published 2015).
Entries after “also recorded” stand apart in the source; their conditions may differ. *1 amine or outer side, *2 acyl side, *3 side chain or, on linkers, in order; H or OH if unused. Where a SMILES comes first, the peptide text is derived from it. Bridges are numbered along the chain shown (N, C = ends). [ ]: non-standard residue; d: D form. The star is where a group is joined. dProlinol(O-CH2CO) = O=C(COC[C@H]1CCCN1[*:1])[*:2]; N(2-Aminoethyl)Gly = O=C(CN(CCN[*:3])[*:1])[*:2]; Nle = CCCC[C@H](N)C(=O)O; Ms = CS(=O)(=O)*

Assays:
[1] = tested on: CD34+ cells from primary AML samples; test: Cell death in primary CD34+ AML cells; format: cell-based, human; conditions: 24 hours
Method: (§1) FIG. 45. Primary CD34+AML cells are sensitive to HM-27 (MTI-101) while their normal counterparts are not. Enriched CD34+ cells from peripheral blood and bone marrow of normal individuals were treated with varying doses of HM-27 for 24 hours and then analyzed for cell death as described in the Materials and Methods.
(§2) FIG. 64. MTI-101 induces cell death in primary CD34 progenitor cells from AML patient. […] CD34-positive cells were enriched using immunomagnetic beads in primary AML samples and normal bone marrow aspirates. Cell death was measured by annexin V positivity and FACS analysis.
(§3) Cells were collected after incubation with HM-27 and analyzed for markers of cell death indicative of either apoptosis, autophagy or necrosis. BM-MNCs were isolated from marrow aspirates of AML patients and normal individuals by Ficoll-Paque centrifugation and further enriched for CD34+ cells using immunomagnetic beads. Cell death was assessed by TO-PRO-3 staining followed by FACS analysis.

[2] = tested on: H929 myeloma cells engrafted into the bone implant; test: MM SCID-Hu in vivo model, tumor burden by circulating Kappa/paraprotein levels (ELISA); design: species or system mice; conditions: H929, 8 mg/kg i.p.
Method: Briefly, 50,000 H929 myeloma cells were engrafted into the bone implant for 10 days prior to initiation of peptide treatment. Following tumor engraftment mice were randomized (0 time point) and injected with 8 mg/kg c-HYD1 or vehicle control (VC) daily (I.P. injections) for 14 days and every other day from day 14-28 at which time treatment stopped. Tumor burden was measured by circulating Kappa levels by ELISA weekly. N=10 mice for vehicle control (VC) and 9 mice for c-HYD1 treated.
FIG. 49. Cyclic HYD1 (MTI-101) was dosed daily at 8 mpk for the first week and then every other day for 4 weeks. The mice were bled weekly to measure paraprotein as a surrogate for tumor burden. […] Three of five vehicle-treated control animals had died by 35 days which contributes to the large SD.
FIGS. 61A-61C. MTI-101 inhibits tumor growth and increases survival in two independent myeloma in vivo models. […] FIG. 61A: Scid-hu model: Following tumor engraftment (2 weeks) mice were randomized (0 time point) and injected with 8 mg/kg MT101 or vehicle control (control) daily (i.p. injections) for 14 days and every other day from day 14-28 at which time treatment stopped. Tumor burden was measured by circulating paraprotein (K light chain) levels by ELISA weekly. […] Images were quantified utilizing Image J and tumor volume in the bone was quantified relative to the entire bone volume (n=5 tibias per group).

[3] = tested on: normal CD34-positive cells; test: Cell death in CD34+ cells from normal individuals; format: cell-based, human; conditions: 24 hours
Method: as §1, §2, §3

[4] = tested on: Caspase 3 activity and total ATP levels in AML cell lines; test: Markers of cell death in AML cell lines (Caspase 3 activity, ATP levels); format: cell-based
Method: FIGS. 42A-42B. […] U937, HL-60 and NB4 cells were treated with varying doses of HM-27 for 24 hr and cell death was determined as described in Materials and Methods. U937 and NB4 cells (150,000) exposed to HM-27 for 24 h were collected and analyzed for Caspase 3 activity using the FITC Active Caspase-3 Apoptosis Kit (BDPharmingen) as per manufacturer's instructions. All figures are a representative of three independent experiments done in triplicates.
FIGS. 43A-43C. Cell death in AML cell lines by HM-27 (MTI-101) is via necrosis. Drug-treated cells (50 μM for U937 and 75 μM for HL-60) were lysed in 2% Triton X-100 in PBS with protease inhibitors (Roche) and incubated on ice for 45 min with mixing every 15 min. The supernatant (lysate) was collected after centrifugation for 20 sec at 10K rcf and 4° C. […] Twenty microliters (20 μL) of the lysate was mixed with 100 μL of the (rL/L) reagent from the kit and the luminescence was measured immediately. The luminescence was corrected by subtracting the value obtained from the blank and was checked against a standard. The luminescence was then multiplied by 50 to represent the total ATP levels from the 1.2×10^6 cells collected. […]
Cells were collected after incubation with HM-27 and analyzed for markers of cell death indicative of either apoptosis, autophagy or necrosis. […] Cell death was assessed by TO-PRO-3 staining followed by FACS analysis.

[5] = tested on: PC9 and HCC4006 cells (activating EGFR mutations); test: MTT survival, combination index with EGFR inhibitor, 72 hours; format: cell-based; conditions: PC9 or HCC4006 cells
Method: FIG. 68. MTI-101 and EGFR inhibitors are synergistic in cell lines with activating EGFR mutations. Cell lines with activating EGFR mutations (PC9 and HCC4006) were treated with varying concentrations of erlotinib or MTI-101 (also referred to as HM-27) for 72 hours and survival was assayed by MTT analysis. Generated data were used to calculate combination index (CI).
FIG. 69. MTI-101 plus EGFR inhibitors are synergistic in lung cancer cell lines with EGFR activating mutations, and MTI-101 plus MEK inhibitors are synergistic in cell lines arboring activating RAS or BRAFF mutations. Values indicate average calculated combination index (CI). Additive (CI=1), synergism (CI<1) and, antagonism (CI>1). […] Cell viability was measured by the MTT assay. Data generated were used to calculate a Chou and Talalay Combination Index (CI).

H929 cells = test: Growth inhibition by MTT, combination index (CalcuSyn), 72 hours; format: cell-based, human; conditions: H929, 72 hours
Method: FIGS. 59A-59B. H929 cells were treated with varying concentrations of MTI-101 alone or in combination with either chloroquine (FIG. 59A), or bortezomib (FIG. 59B). Following 72 hours of drug treatment growth inhibition was determined by MTT analysis. Data generated were used to calculate the combination index (CI) using CalcuSyn software developed by Chou and Talalay. MTI-101 is synergistic with bortezomib (a proteosome inhibitor) and chloroquine (an inhibitor of autophagy).

[6] = tested on: pPyk2, pAkt and pErk1/2 in U937 or HL-60 cells; test: Western blot of signaling in AML cells after peptide treatment; format: cell-based; conditions: U937 or HL-60, 50 μM MTI-101, western blot
Method: FIG. 44. U937 or HL-60 cells were treated with 50 μM MTI-101 for the indicated times and pPyk2, pAkt and pErk1/2 were detected by western blot analysis.
Consistent with data obtained with the linear peptide, we show CD44 and VLA-4 are pulled down using biotin conjugated HM-27 as bait.

In the case of `CCCC[C@@H]1NC(=O)CN(S(C)(=O)=O)CCNC(=O)[C@H](CCCCN)NC(=O)[C@H](CC(C)C)NC(=O)[C@H](CCCCN)NC(=O)[C@H](CC(C)C)NC(=O)[C@H](CCCCN)NC(=O)COC[C@H]2CCCN2C(=O)[C@H](Cc2c[nH]c3ccccc23)NC(=O)[C@H](C)NC(=O)[C@H](C(C)C)NC(=O)[C@H](C(C)C)NC1=O` [MTI-101] (Ms-[N(2-Aminoethyl)Gly][Nle]VVAW[dProlinol(O-CH2CO)]KLKLK; lactam 1-C), the “cell death in primary AML CD34+ cells” value [1] is reported as “Primary AML specimens are sensitive to MTI-101 induced cell death”, the “cell death in primary AML CD34+ cells” value ([1]; listed as HM-27) is reported as “CD34+ cells from primary AML samples are sensitive to HM-27; also recorded: increased potency in samples from relapsed patients compared to specimens obtained from the newly diagnosed” and the “tumor growth / tumor burden” value [2] is reported as “significantly reduces tumor growth (p<0.05 ANOVA)”. For the same molecule, the “tumor growth / tumor burden” value ([2]; listed as c-HYD1) was “completely inhibits human MM tumor xenographs growth in SCID mice; also recorded: inhibits multiple myeloma engrafted tumor in the SCID-HU model”, the “cell death in normal CD34+ cells” value [3] was “devoid of activity in normal CD34-positive cells” and the “cell death in normal CD34+ cells” value ([3]; listed as HM-27) was “CD34+ cells from normal individuals are not sensitive to HM-27”. For the same molecule, the “ATP levels in AML cell lines” value [4] was “resulted in ATP depletion”, the “Caspase 3 activation in AML cell lines” value ([4]; 24 h) was “did not cause activation of Caspase 3” and the “combination with EGFR inhibitor Erlotinib” value [5] was “Synergistic growth inhibition”. For the same molecule, the “combination with bortezomib” value (H929 cells) was “synergistic”, the “combination with chloroquine” value (H929 cells) was “synergistic” and the “phospho-protein levels in AML cells” value [6] was “increased the levels of pPyk2 and pErk1/2, but not pAKT”. The “phospho-protein levels in AML cells” value ([6]; listed as HM-27) was “induced an early activation of Erk1/2 in AML cells”.
